IC50 data for one molecule are collected here from ChEMBL document CHEMBL5727488, “3-indol substituted derivatives, pharmaceutical compositions and methods for use” (2020).

The target of this assay is Tryptophan 2,3-dioxygenase (Homo sapiens, UniProt P48775). The experiment in a line: Assay for TDO2 enzymatic activity determination: To measure the TDO2 activity, the procedure described in Dolusic et al. J. Med. Chem.; 2011, 54, […] was adapted: the reaction mixture contained (final concentrations) potassium phosphate buffer (50 mM, pH 7.5), ascorbic acid (0.25 M), methylene blue (0.125 μM), catalase (40 units/mL, from bovine liver, Sigma), and human recombinant TDO2 enzyme (prepared as described in Dolusic et al. J. Med. Chem.; 2011, 54, 5320-5334; 0.9 μg) without or with the compounds of the present invention at the indicated concentrations (total volume 112.5 μL). The reaction was initiated by the addition of 37.5 μL of L-Trp (final concentration 1 mM) at room temperature. The reaction was conducted at room temperature during one hour and stopped by the addition of 30 μL of 30% (w/v) trichloroacetic acid.To convert N-formylkynurenine into kynurenine, the reaction mixture was incubated at 65° C. for 30 min. Then 150 μL of the reaction mixture was mixed with 120 μL of 2.5% (w/v) 4-(dimethylamino)-benzaldehyde in acetic acid and incubated for 5 min at room temperature. Kynurenine concentrations were determined by measuring the absorbance at 480 nm. A standard curve was made with pure kynurenine. The TDO activity was measured as described above using ten serial concentrations of the compounds of the present invention. […].
Chain of Tryptophan 2,3-dioxygenase (P48775 whole entry): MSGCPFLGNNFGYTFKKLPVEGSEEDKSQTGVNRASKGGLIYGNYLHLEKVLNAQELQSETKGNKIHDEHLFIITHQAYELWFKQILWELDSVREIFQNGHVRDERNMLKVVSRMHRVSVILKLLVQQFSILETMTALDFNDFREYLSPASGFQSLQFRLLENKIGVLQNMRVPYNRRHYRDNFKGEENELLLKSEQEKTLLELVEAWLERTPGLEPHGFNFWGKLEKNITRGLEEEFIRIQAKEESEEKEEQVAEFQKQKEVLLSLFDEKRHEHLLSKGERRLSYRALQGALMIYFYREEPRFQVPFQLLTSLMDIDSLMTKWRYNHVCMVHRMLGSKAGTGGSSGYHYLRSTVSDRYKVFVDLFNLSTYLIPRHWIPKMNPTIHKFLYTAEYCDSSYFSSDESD

As usually defined, the IC50 is the concentration that gives 50% inhibition. For the molecule `C[C@@H](CO)NS(=O)(=O)c1ccc(-c2c[nH]c3cc(F)ccc23)cc1`, the IC50 stood at 840 nM.
